The record followed here is PubChem BioAssay (NCI).

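Briefly, cells in 96-well plates were exposed to five compound concentrations for 48 h, and endpoints were estimated by linear interpolation. TGI is the concentration that stops growth completely.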 Where only a bound is given, the exact number is not on record here.

Among the test systems are TK-10 renal; NCI-H460 lung; SF-295 CNS; MDA-N; SF-268 CNS; K-562 leukemia; MALME-3M melanoma; CAKI-1 renal; COLO 205 colon; NCI/ADR-RES ovarian; HOP-62 NSCLC; SF-539 CNS; MCF7 breast; NCI-H23 lung; HOP-92 NSCLC; MOLT-4 leukemia; T-47D breast; IGROV1 ovarian; SNB-19 CNS; LXFL 529 NSCLC.
Common to all, as to assay: DTP human tumour cell line panel, 48 h

Usually TGI stands for the concentration giving total growth inhibition. The low end stands for greater sensitivity of the cells, the high end for lower sensitivity of the cells. Regarding `COc1cc2c(c(OC)c1OC)C(=O)[C@H](Br)[C@H]2NC(=O)NCCCl`, the total growth inhibition concentration (TGI) in the assay with TK-10 renal, in the assay with NCI-H460 lung, with SF-295 CNS, with MDA-N, in the assay on SF-268 CNS and in the assay with K-562 leukemia was greater than 100 µM in each case. Besides, the concentration for total growth inhibition (TGI) in the assay with MALME-3M melanoma, with CAKI-1 renal, in the assay with COLO 205 colon, in the assay with NCI/ADR-RES ovarian, in the assay with HOP-62 NSCLC and in the assay on SF-539 CNS was greater than 100 µM in each case. Moreover, the total growth inhibition concentration (TGI) in the assay on MCF7 breast, with NCI-H23 lung, in the assay on HOP-92 NSCLC, with MOLT-4 leukemia, in the assay with T-47D breast and in the assay with IGROV1 ovarian was greater than 100 µM in each case. Further, the TGI in the assay with SNB-19 CNS was greater than 100 µM.

Turning to `COc1cc2ccc1OCc1cccc(n1)COc1ccc(cc1OC)C=Nc1ccc(cc1)-c1ccc(cc1)N=C2`, the TGI in the assay with TK-10 renal, in the assay on NCI-H460 lung, in the assay on SF-295 CNS, in the assay on MDA-N, in the assay on SF-268 CNS and with K-562 leukemia was greater than 100 µM in each case. Moreover, the TGI in the assay with MALME-3M melanoma, in the assay on CAKI-1 renal, with COLO 205 colon, with NCI/ADR-RES ovarian, with HOP-62 NSCLC and in the assay with SF-539 CNS was greater than 100 µM each time. Moreover, the TGI in the assay on MCF7 breast, in the assay with NCI-H23 lung, with HOP-92 NSCLC, in the assay on MOLT-4 leukemia, in the assay on T-47D breast and with IGROV1 ovarian was greater than 100 µM each time. In addition, the TGI in the assay on SNB-19 CNS is greater than 100 µM.

For the molecule `O=C(O)c1cc(O)c2c(c1)C([C@@H]1c3cccc(O)c3C(=O)c3c(O)cc(C(=O)O)cc31)c1cccc(O)c1C2=O` (some centres not stated), the concentration for total growth inhibition (TGI) was greater than 100 µM in the assay on TK-10 renal; greater than 100 µM with NCI-H460 lung; greater than 100 µM in the assay with SF-295 CNS; 41.5 µM in the assay on MDA-N; 96.9 µM in the assay with SF-268 CNS; 86.4 µM in the assay on K-562 leukemia. In addition, the TGI with MALME-3M melanoma was 44.7 µM; in the assay on CAKI-1 renal, greater than 100 µM; with COLO 205 colon, greater than 100 µM; with NCI/ADR-RES ovarian, greater than 100 µM; with SF-539 CNS it was 55 µM; with MCF7 breast, 91.8 µM. Besides, the TGI in the assay with NCI-H23 lung was greater than 100 µM; in the assay on HOP-92 NSCLC, 57.7 µM; in the assay on MOLT-4 leukemia it was 69.2 µM; in the assay on T-47D breast, greater than 100 µM; in the assay with IGROV1 ovarian, 49.4 µM; with SNB-19 CNS, greater than 100 µM.

With `COc1ccc(N2C(=O)[C@@H]3[C@H](C2=O)c2[nH]c4ccccc4c2C2CCC(C(C)(C)C)C[C@@H]23)cc1` (some centres not stated), the TGI was 74.6 µM in the assay on TK-10 renal; greater than 100 µM with NCI-H460 lung; 29.4 µM in the assay on SF-295 CNS; greater than 100 µM with SF-268 CNS; greater than 31.6 µM in the assay with K-562 leukemia; greater than 85 µM with MALME-3M melanoma. In addition, the total growth inhibition concentration (TGI) is greater than 68.9 µM with CAKI-1 renal; greater than 84.2 µM in the assay with COLO 205 colon; 32.9 µM in the assay on HOP-62 NSCLC; 62.6 µM with SF-539 CNS; 66.4 µM with NCI-H23 lung; greater than 100 µM in the assay with MOLT-4 leukemia. Also, the concentration for total growth inhibition (TGI) in the assay with LXFL 529 NSCLC was greater than 100 µM; in the assay with IGROV1 ovarian, greater than 100 µM; in the assay on SNB-19 CNS, greater than 61.4 µM.

Take `C[C@H](CCC(=O)O)[C@H]1CC[C@H]2[C@@H]3[C@H](O)C[C@@H]4C[C@H](O)CC[C@]4(C)[C@H]3CC[C@]12C`: the TGI in the assay on TK-10 renal was greater than 100 µM; in the assay on NCI-H460 lung, 92 µM; in the assay on MDA-N it was greater than 100 µM; in the assay with SF-268 CNS, greater than 100 µM; in the assay on K-562 leukemia, greater than 100 µM; in the assay on MALME-3M melanoma, greater than 100 µM. Also, the TGI with CAKI-1 renal is greater than 100 µM; in the assay on COLO 205 colon it was 45.7 µM; with NCI/ADR-RES ovarian it was greater than 100 µM; in the assay on HOP-62 NSCLC it was greater than 100 µM; in the assay with SF-539 CNS, 62.1 µM; in the assay on MCF7 breast, greater than 100 µM. Also, the total growth inhibition concentration (TGI) in the assay with NCI-H23 lung is 64.7 µM; with HOP-92 NSCLC it was 91.1 µM; in the assay with MOLT-4 leukemia it was 62 µM; in the assay with T-47D breast, greater than 100 µM; with IGROV1 ovarian it was greater than 100 µM; in the assay with SNB-19 CNS it was greater than 100 µM.

`O=C1CCCCCC1CC(Sc1ccccc1)Sc1ccccc1` (configuration not stated): the TGI in the assay on TK-10 renal, in the assay on NCI-H460 lung, in the assay on SF-295 CNS, in the assay with MDA-N, in the assay with SF-268 CNS and in the assay on K-562 leukemia was greater than 100 µM throughout. For the same molecule, the total growth inhibition concentration (TGI) in the assay with MALME-3M melanoma, in the assay with CAKI-1 renal, in the assay on COLO 205 colon, in the assay on NCI/ADR-RES ovarian, in the assay on HOP-62 NSCLC and with SF-539 CNS was greater than 100 µM in each case. Moreover, the total growth inhibition concentration (TGI) in the assay on MCF7 breast is greater than 100 µM; with NCI-H23 lung, greater than 100 µM; in the assay with HOP-92 NSCLC, greater than 100 µM; in the assay on MOLT-4 leukemia, 47.3 µM; in the assay on T-47D breast, greater than 100 µM; in the assay on IGROV1 ovarian, greater than 100 µM. The same molecule showed a TGI with SNB-19 CNS greater than 100 µM.

In the case of `CNC(=O)CNC(=O)C(Cc1ccc(NC(=O)CCCCC(C)=O)cc1)NC(=O)C(CCC(=O)OCc1ccccc1)NC(=O)OC(C)(C)C` (configuration not stated), the total growth inhibition concentration (TGI) with TK-10 renal, in the assay on NCI-H460 lung, in the assay with SF-295 CNS, in the assay with MDA-N, in the assay on SF-268 CNS and in the assay on K-562 leukemia was greater than 100 µM each time. The TGI in the assay with MALME-3M melanoma, in the assay with CAKI-1 renal, in the assay on COLO 205 colon, in the assay with NCI/ADR-RES ovarian, in the assay on HOP-62 NSCLC and in the assay with SF-539 CNS was greater than 100 µM in each case. Further, the TGI with MCF7 breast, with NCI-H23 lung, with HOP-92 NSCLC, in the assay on MOLT-4 leukemia, with T-47D breast and in the assay on IGROV1 ovarian was greater than 100 µM throughout. In the assay on SNB-19 CNS, the TGI is greater than 100 µM.
